# Measured values as given in ChEMBL document CHEMBL1150436 (Bioorg Med Chem Lett, 1995).
# Key:
# D(2) dopamine receptor [1] = target: T1, D(2) dopamine receptor (Rattus norvegicus, UniProt P61169); assay: Ability to displace [3H]spiperone from D2 dopamine receptor isolated from the striata of male Wistar rats
# [2] = target: T2, 5-hydroxytryptamine receptor 1A (Rattus norvegicus, UniProt P19327); assay: Ability to displace [3H]-8-OH-DPAT from serotonergic 5-hydroxytryptamine 1A receptor
# T2 sequence (P19327 whole entry): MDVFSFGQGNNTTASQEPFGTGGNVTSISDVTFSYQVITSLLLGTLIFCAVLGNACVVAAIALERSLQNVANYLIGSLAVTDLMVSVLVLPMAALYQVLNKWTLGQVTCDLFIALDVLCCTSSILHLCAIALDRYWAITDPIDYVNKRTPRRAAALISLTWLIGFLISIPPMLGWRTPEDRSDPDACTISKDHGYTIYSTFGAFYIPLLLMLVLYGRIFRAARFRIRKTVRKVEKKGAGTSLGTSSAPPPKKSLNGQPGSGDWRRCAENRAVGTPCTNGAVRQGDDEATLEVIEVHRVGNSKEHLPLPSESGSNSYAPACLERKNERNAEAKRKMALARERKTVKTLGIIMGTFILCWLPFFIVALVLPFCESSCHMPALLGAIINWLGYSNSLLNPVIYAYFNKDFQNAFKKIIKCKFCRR
# [3] = target: T3, Serotonin 2 (5-HT2) receptor (Rattus norvegicus, UniProt P30994+P08909+P14842); assay: Ability to displace [3H]ketanserin from serotonergic 5-hydroxytryptamine 2 receptor; type: protein assay
# D(2) dopamine receptor [4] = target: T1, D(2) dopamine receptor; assay: Compound was evaluated for its ability to displace [3H]spiperone from D2 dopamine receptor isolated from the striata of male Wistar rats
# [5] = target: T2, 5-hydroxytryptamine receptor 1A; assay: Compound was evaluated for its ability to displace [3H]8-OH-DPAT from serotonergic 5-hydroxytryptamine 1A receptor
# [6] = target: T3, Serotonin 2 (5-HT2) receptor; assay: Compound was evaluated for its ability to displace [3H]ketanserin from serotonergic 5-hydroxytryptamine 2 receptor; type: protein assay
# T1 sequence (P61169 whole entry): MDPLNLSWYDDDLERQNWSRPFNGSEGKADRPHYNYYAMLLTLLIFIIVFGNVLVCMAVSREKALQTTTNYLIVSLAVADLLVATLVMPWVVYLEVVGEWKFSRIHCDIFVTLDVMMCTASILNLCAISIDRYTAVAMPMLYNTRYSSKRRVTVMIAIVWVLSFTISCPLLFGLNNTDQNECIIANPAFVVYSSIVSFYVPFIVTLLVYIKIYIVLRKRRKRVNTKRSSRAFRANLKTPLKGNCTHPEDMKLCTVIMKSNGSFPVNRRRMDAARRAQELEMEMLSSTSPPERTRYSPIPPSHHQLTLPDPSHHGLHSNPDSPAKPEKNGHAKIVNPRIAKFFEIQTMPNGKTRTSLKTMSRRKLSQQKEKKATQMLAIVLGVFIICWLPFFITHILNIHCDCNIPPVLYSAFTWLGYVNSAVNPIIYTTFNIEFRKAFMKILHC
Ki (D(2) dopamine receptor [1]) [nM],Ki [2] [nM],Ki [3] [nM],Ki (D(2) dopamine receptor [4]) [nM],Ki [5] [nM],Ki [6] [nM],SMILES
800,10,–,–,–,–,CN1CCOc2c(C(=O)NC[C@@H]3CCCN3CCc3ccccc3)cc(Cl)cc21
57,35,1700,–,–,–,CN1CCOc2c(C(=O)NC[C@H]3CCCN3CCc3ccccc3)cc(Cl)cc21
> 1000,> 1000,> 1000,–,–,–,CCN1CCC[C@@H]1CNC(=O)c1cc(Cl)cc2c1OCCN2C
210,21,99,–,–,–,CN1CCOc2c(C(=O)NC[C@H]3CCCN3Cc3ccccc3)cc(Cl)cc21
–,–,–,270,170,2200,CCCCN1CCCC1CNC(=O)c1cccc2c1OCCN2C (centres undefined)
–,–,–,–,1200,> 1000,CCCCN1CCC[C@H]1CNC(=O)c1cc(S(N)(=O)=O)ccc1OC
> 1000,570,> 1000,–,–,–,CCCCCCCCCN1CCC[C@H]1CNC(=O)c1cc(Cl)cc2c1OCC2
17,120,22,–,–,–,CCCCN1CCC[C@@H]1CNC(=O)c1cc(SC)cc2c1OCCN2C
–,330,400,–,–,–,CCCCN1CCC[C@@H]1CNC(=O)c1cc(Cl)cc2c1OCC2
4.2,17,27,–,–,–,CSc1cc(C(=O)NC[C@H]2CCCN2Cc2ccccc2)c2c(c1)N(C)CCO2
–,–,–,670,450,3000,CCCCN1CCCC1CNC(=O)c1cc(S(N)(=O)=O)cc2c1OCCN2C (centres undefined)
–,–,–,12,34,–,CCCCN1CCC[C@H]1CNC(=O)c1cc(Cl)cc2c1OCCN2C
–,–,–,630,430,–,CCCCN1CCC[C@@H]1CNC(=O)c1cc(Cl)cc2c1OCCN2C
–,–,–,–,4500,> 1000,CCCCN1CCC[C@@H]1CNC(=O)c1cc(S(N)(=O)=O)ccc1OC
180,81,2300,–,–,–,CCCCCCCCCN1CCC[C@H]1CNC(=O)c1cc(S(N)(=O)=O)ccc1OC
270,880,550,–,–,–,CSc1cc(C(=O)NC[C@@H]2CCCN2Cc2ccccc2)c2c(c1)N(C)CCO2
84,330,> 1000,–,–,–,CCCCCCCCCN1CCC[C@@H]1CNC(=O)c1cc(Cl)cc2c1OCC2
3.6,19,2100,–,–,–,CCCCN1CCC[C@H]1CNC(=O)c1cc(SC)cc2c1OCCN2C
310,220,420,–,–,–,CN1CCOc2c(C(=O)NC[C@@H]3CCCN3Cc3ccccc3)cc(Cl)cc21
6.5,> 1000,> 1000,–,–,–,CCN1CCC[C@H]1CNC(=O)c1cc(Cl)cc2c1OCC2
> 1000,> 1000,> 1000,–,–,–,CCN1CCC[C@@H]1CNC(=O)c1cc(Cl)cc2c1OCC2
92,16,3700,–,–,–,CCCCCCCCCN1CCC[C@@H]1CNC(=O)c1cc(S(N)(=O)=O)ccc1OC
–,18,3300,–,–,–,CCCCN1CCC[C@H]1CNC(=O)c1cc(Cl)cc2c1OCC2
–,–,–,750,280,> 1000,CCCCCCCCCN1CCC[C@H]1CNC(=O)c1cc(Cl)cc2c1OCCN2C
16,> 1000,> 1000,–,–,–,CCN1CCC[C@H]1CNC(=O)c1cc(Cl)cc2c1OCCN2C
–,–,–,690,> 1000,> 1000,CCCCCCCCCN1CCC[C@@H]1CNC(=O)c1cc(Cl)cc2c1OCCN2C

SMILES,Ki (D(2) dopamine receptor [1]) [nM],Ki [2] [nM],Ki [3] [nM],Ki (D(2) dopamine receptor [4]) [nM],Ki [5] [nM],Ki [6] [nM]
CCN1CCC[C@@H]1CNC(=O)c1cc(Cl)cc2c1OCC(=O)N2C,> 1000,> 1000,> 1000,–,–,–
CCCCN1CCC[C@H]1CNC(=O)c1cc(Cl)cc2c1OCC(=O)N2C,> 1000,> 1000,> 1000,–,–,–
CCCCN1CCC[C@@H]1CNC(=O)c1cc(Cl)cc2c1OCC(=O)N2C,> 1000,> 1000,> 1000,–,–,–
CCCCCCCCCN1CCC[C@H]1CNC(=O)c1cc(Cl)cc2c1OCC(=O)N2C,> 1000,> 1000,> 1000,–,–,–
CCCCCCCCCN1CCC[C@@H]1CNC(=O)c1cc(Cl)cc2c1OCC(=O)N2C,> 1000,> 1000,> 1000,–,–,–
CCN1CCC[C@H]1CNC(=O)c1cc(Cl)cc2c1OCC(=O)N2C,> 1000,> 1000,> 1000,–,–,–
